Data published in patent publication US4608338A, “Process for bioconversion-product recovery” (Celanese Corporation, priority 1982, dated 1986).

Tests used:
[1] = solubility of muconic acid at pH 1.0 (Example III B, precipitation from regular "NO" medium); type: physicochemical
Procedure: To 500 ml of regular "NO" medium are added 15 grams of cis, cis-muconic acid. The pH of the solution is about […]. A 14.2 ml quantity of concentrated NH4 OH solution (15N) is added to adjust the pH to 6.2.
To the neutralized solution is added a 17 ml quantity of concentrated H2 SO4 solution, which lowers the pH of the solution to 0.99. White solids precipitate from the solution, and the solids are filtered, washed and recovered as muconic acid (quantitative recovery; solubility of muconic acid at pH 1.0 is 0.03 wt %).

[2] = solubility of muconic acid in acidified aqueous fermentation medium; type: physicochemical; details: pH of 1-2, 20° C.
Procedure: Under optimal conditions, the muconic acid accumulation limit can approach up to about 50 grams of muconic acid per liter of growth medium. The microbiological oxidation step of the present invention process normally is conducted at ambient temperatures up to about 31° C. The muconic acid at a concentration between about 10-45 grams/liter in the cell-free ammonia-neutralized aqueous fermentation medium is precipitated with sulfuric acid or phosphoric acid. The precipitated muconic acid (solubility at pH of 1-2, about 0.07% at 20° C.) is filtered, washed and dried. In a further embodiment of the present invention, the muconic acid is admixed with a solvent medium such as acetic acid (e.g., to form a 40 weight percent muconic acid/acetic acid slurry solution), and then treated under hydrogenation conditions to yield adipic acid.

Question: With `O=C(O)/C=C\C=C/C(=O)O` [muconic acid, cis, cis-muconic acid] as the compound, how does the solubility [1] read?
Answer: Its solubility is 0.03 wt %.

Question: What about the solubility [2] of the same compound?
Answer: The solubility was “about 0.07%”.
